What was measured:
Assay type in all cases: in vivo
total cholesterol = test: Human clinical trials: total cholesterol levels in participant blood samples; conditions: majority of clinical trial participants; with or without amino acids; absence of additional measures
Method: (§1) Two challenges were being considered at the beginning of the human clinical trial. The first challenge was to document the stand-alone efficacy of HTA-8 as a new growth hormone releasing factor. The second was to determine if HTA-8 could be combined with other common releasing factors to create an even better result. As such, two separate trials were conducted. • Trial #1/HTA-8: Ten individuals ranging in age from 30 to 69 years were given 30 ng of HTA-8 in the form of an aerosolized oral spray before bed, over a 30-32 day period. • Trial #2/HTA-8+: Fifteen individuals ranging in age from 38 to 70 years of age were given an effervescent tablet to take once daily over a 25-36 day period that contained 20 ng of HTA-8 in combination with 1200 mg each of the amino acids lysine and arginine. (Previous published experimentation has shown that the combination of lysine and arginine in the doses used in Trial #2 is an effective GH releasing factor.)
The principal hormone measured in order to establish whether there is an increase in growth hormone secretion is IGF-1. IGF-1 concentrations and total cholesterol levels were determined by collecting participant blood samples at the beginning of the studies and at their conclusion. […]

IGF-1 = test: Human clinical trials: IGF-1 concentrations in participant blood samples
Method: as §1
The principal hormone measured in order to establish whether there is an increase in growth hormone secretion is IGF-1. IGF-1 concentrations and total cholesterol levels were determined by collecting participant blood samples at the beginning of the studies and at their conclusion.

[1] = Human clinical trials: radial bone density by ultrasonographic technique; conditions: subjects taking HTA-8 alone (Trial #1)
Method: as §1
An increase in bone density decreases the chance of fracture and […]. Bone density is a particularly important issue as the body ages, regardless of sex. During the Clinical Trials, radial bone density was measured using an ultrasonographic technique.

[2] = Human clinical trials: ultrasound-based body composition analysis and body weight; conditions: all study participants in both clinical trials
Method: as §1

H-D-Ala-D-2-Nal-Trp-H is-Trp-D-Phe-Lys-N H2 [HTA-8]
change in total cholesterol levels over the study period (total cholesterol): clinically significant decrease
maximum IGF-1 level measured in all clinical trial participants after the study period (IGF-1; Trial #1: 30 ng HTA-8 oral spray before bed, 30-32 days, person): 410 ng/mL
GHRF activity (IGF-1 response) (IGF-1; Trial #1: HTA-8 alone, oral spray): bona fide, stand-alone GHRF
IGF-1 level on average, after (increased to) (IGF-1; Trial #2: effervescent tablet once daily, 20 ng HTA-8 with 1200 mg each lysine and arginine, after 25-36 day period): 202 ng/mL
IGF-1 level on average, before (increased from) (IGF-1; Trial #2: effervescent tablet once daily, 20 ng HTA-8 with 1200 mg each lysine and arginine, beginning of study): 170 ng/mL
average increase in bone density [1]: 6.8%
change in adipose tissue mass [2]: decrease in adipose tissue mass
change in lean muscle mass [2]: increase in lean muscle mass
